Measured values as given in article PMC6521145 (Viruses, 2019).
Like-named read-outs stand apart in the source and are kept apart here.

What was measured:
ZIKV (H/PAN) [1] = experiment: Plaque assay, ZIKV titer from infected hNSCs; format: cell-based, Zika virus
hNSCs = conditions: hNSCs
ZIKV (H/PAN and PRV) = experiment: Plaque assay, ZIKV titer from infected Vero cells; format: cell-based, Zika virus; conditions: for rescue of ZIKV replication from MTX treatment: 50 µM co-treatment with 5 µM MTX, H/PAN and PRV MOI 0.2, Vero cells; for rescue of ZIKV replication from MTX treatment / decrease in ZIKV titer: 48 h PI; for rescue of ZIKV replication during MTX treatment: 5 µM MTX with GAT medium or 0.67 mM glycine, 37.5 µM adenosine, 41.3 µM thymidine, 48 h
Vero cells [2] = conditions: for rescue of cell viability during MTX treatment (CTG): 5 µM MTX with GAT medium or 0.67 mM glycine, 37.5 µM adenosine, 41.3 µM thymidine
ZIKV (H/PAN) [3] = experiment: Immunofluorescence imaging of ZIKV envelope protein in infected Vero cells
[4] = tested on: human brain microvascular endothelial cells; conditions: read-out: host cytotoxicity (CC50); cited from earlier work
[5] = human
ZIKV (H/PAN) [6] = experiment: Immunofluorescence imaging of ZIKV envelope protein in infected hNSCs; conditions: Zika virus, read-out: IC50 (µM) Values of MTX, Immunofluorescence
[7] = human, hNSCs
ZIKV = conditions: human brain microvascular endothelial cells; read-out: inhibitory concentration 50 (IC50) against ZIKV; cited from earlier work
Vero cells [8] = conditions: for rescue of cell viability during MTX treatment (CTF): 5 µM MTX with 0.67 mM glycine, 37.5 µM adenosine or 41.3 µM thymidine, uninfected Vero cells
[9] = GAT medium or 37.5 µM adenosine without MTX

Q: With `Nc1nc2c(c(=O)[nH]1)N(C=O)C(CNc1ccc(C(=O)N[C@@H](CCC(=O)O)C(=O)O)cc1)CN2` (stereo partly shown) [leucovorin] as the molecule, how does the “rescue of ZIKV replication during MTX treatment” value (ZIKV (H/PAN) [1]; 50 µM with 5 µM MTX, H/PAN MOI 0.1, hNSCs) read?
A: Its value is “same rescue effect”.

Q: And the “cell viability, substance alone (CTG)” value (hNSCs; 50 µM leucovorin vs water vehicle)?
A: The value was “No significant difference”.

Q: And the “rescue of cell viability during MTX treatment (CTG)” value (hNSCs; 50 µM with 5 µM MTX)?
A: The value was “same rescue effect”.

Q: And the “rescue of ZIKV replication from MTX treatment” value (ZIKV (H/PAN and PRV))?
A: Its value is “rescued”.

Q: What about the “cell viability, substance alone (CTG)” value (Vero cells [2]; 50 µM leucovorin vs water vehicle, Vero cells) of the same molecule?
A: The value was “No significant difference”.

Q: And the “rescue of cell viability after MTX treatment (CTG)” value (Vero cells [2]; 50 µM with 5 µM MTX, uninfected Vero cells)?
A: The value was “could rescue”.

Q: Which “ZIKV envelope protein synthesis” value (ZIKV (H/PAN) [3]; 5 µM MTX, H/PAN MOI 0.2, Vero cells, 48 h PI) does the source give for `CN(Cc1cnc2nc(N)nc(N)c2n1)c1ccc(C(=O)N[C@@H](CCC(=O)O)C(=O)O)cc1` [MTX, methotrexate] here?
A: Its value is “reduced”.

Q: And the IC50 (ZIKV (H/PAN) [3]; Zika virus, Vero, read-out: IC50 (µM) Values of MTX, Immunofluorescence)?
A: The IC50 was 0.245 µM.

Q: And the “ZIKV replication in infected hNSCs” value (ZIKV (H/PAN) [1]; 5 μM MTX, hNSCs)?
A: Its value is “reduced ZIKV replication”.

Q: And the CC50 [4]?
A: The CC50 was > 10 µM.

Q: And the CC50 [5]?
A: Its CC50 is 16.3 nM.

Q: And the IC50 (ZIKV (H/PAN) [6])?
A: Its IC50 is 0.334 µM.

Q: What about the “decrease in ZIKV titer” value (ZIKV (H/PAN and PRV); 5 µM MTX, H/PAN and PRV both MOI 0.2, Vero cells) of the same molecule?
A: Its value is “approximately 10 fold”.

Q: And the “ZIKV replication at 96 h PI compared to DMSO control” value (ZIKV (H/PAN and PRV); 5 µM MTX, Vero cells, 96 h PI)?
A: Its value is “resumed”.

Q: What about the “decrease in ZIKV titer” value (ZIKV (H/PAN and PRV); 6.25 µM MTX, H/PAN MOI 0.2, Vero cells) of the same molecule?
A: The value was “approximately 10 fold”.

Q: And the CC50 [7]?
A: Its CC50 is > 100 µM.

Q: And the IC50 (ZIKV)?
A: The IC50 was 280 nM.

Q: Which “rescue of cell viability during MTX treatment (CTF)” value (Vero cells [8]) does the source give for `Cc1cn([C@H]2C[C@H](O)[C@@H](CO)O2)c(=O)[nH]c1=O` [thymidine] here?
A: Its value is “could not rescue”.

Q: What about the “rescue of ZIKV replication during MTX treatment” value (ZIKV (H/PAN and PRV); H/PAN MOI 0.2, Vero cells) of the same molecule?
A: Its value is “could not rescue”.

Q: And the “rescue of cell viability during MTX treatment (CTG)” value (Vero cells [2]; uninfected Vero cells)?
A: The value was “could not rescue”.

Q: With `Nc1nc(=O)c2nc(CNc3ccc(C(=O)N[C@@H](CCC(=O)O)C(=O)O)cc3)cnc2[nH]1` [folic acid] as the molecule, how does the “rescue of ZIKV replication from MTX treatment” value (ZIKV (H/PAN and PRV)) read?
A: Its value is “could not rescue”.

Q: Which “rescue of cell viability during MTX treatment (CTF)” value (Vero cells [8]) does the source give for `NCC(=O)O` [glycine] here?
A: Its value is “could not rescue”.

Q: What about the “rescue of cell viability during MTX treatment (CTG)” value (Vero cells [2]; uninfected Vero cells) of the same molecule?
A: The value was “could not rescue”.

Q: What does the source list for `Nc1ncnc2c1ncn2[C@@H]1O[C@H](CO)[C@@H](O)[C@H]1O` [adenosine]?
A: rescue of cell viability during MTX treatment (CTF) (Vero cells [8]): could; viability of Vero cells, substance alone (CTF) (Vero cells [8]; [9]): did not alter; rescue of ZIKV replication during MTX treatment (ZIKV (H/PAN and PRV); H/PAN MOI 0.2, Vero cells): rescued; rescue of cell viability during MTX treatment (CTG) (Vero cells [2]; uninfected Vero cells): could; viability of Vero cells, substance alone (CTG) (Vero cells [2]; [9]): did not alter
